Test results taken from paper PMC7918738, “Microtubule Destabilizing Sulfonamides as an Alternative to Taxane-Based Chemotherapy” (International Journal of Molecular Sciences, 2021).
Where “and” joins values, the source holds several entries; their conditions need not be identical. Identical values can stand only once.

Columns and labels:
[1] = test system: OVCAR-8 ovarian carcinoma cells; assay: Antiproliferative activity against OVCAR-8 (MTT); type: cell-based; conditions: Homo sapiens, 72 h
Description: (§1) The in vitro antiproliferative activity of compounds 38, 42, and 45 against a panel of five human ovarian carcinoma cell lines (SKOV3, IGROV-1, A2780, OVCAR-8, and OVCAR-3) was evaluated by a colorimetric method (Table 3) and compared with paclitaxel. […] For SKOV3, the potency reduction observed for paclitaxel together with a sustained or improved (42 with a 7 nM IC50 value) potency for MDS results in a more favorable profile of the MDS compared to paclitaxel.
(§2) MCF7 (human breast carcinoma), SKOV-3 (human ovarian carcinoma), OVCAR-3 (human ovarian carcinoma), OVCAR-8 (human ovarian carcinoma), and HeLa (human cervical carcinoma) cell lines were cultured in Dulbecco’s Modified Eagle’s Medium (DMEM) (Gibco, Thermo Fischer Scientific) containing 10% (v/v) heat-inactivated fetal bovine serum (HIFBS) (Lonza-Cambrex, Karlskoga, Sweden), 2 mM L-glutamine (Lonza-Cambrex, Karlskoga, Sweden), 100 μg/mL streptomycin, and 100 IU/mL penicillin (Lonza-Cambrex) at 37 °C in humidified 95% air and 5% CO2. […]
(§3) MCF7, HeLa, and HT-29 cell proliferation, when treated with the corresponding compounds, were determined using the XTT (sodium 3’-[1(phenylaminocarbonyl)-3,4-tetrazolium]-bis(4-methoxy-6-nitro)-benzenesulfonic acid hydrate) cell proliferation kit (Roche Molecular Biochemicals, Mannheim, Germany). […] The absorbance of the formazan product generated was measured at 450 nm using a multi-well plate reader. SKOV-3, OVCAR-3, OVCAR-8, IGROV-1, A-2780 cell proliferation, when treated with the corresponding compound, were determined using MTT (3-(4,5-dimethylthiazol-2-yl)-2,5-diphenyl-2H-tetrazolium bromide) (Sigma-Aldrich, St. Louis, MO, USA). […] Absorbance was measured at 570 nm in a plate reader (Ultra Evolution, Tecan, Männedorf, Suiza). […] After 24 h incubation, to allow cells to attach to the plates, all compounds were added at 1 µM concentration and the effect on the proliferation was evaluated 72 h post-treatment. […]

SKOV3 cells = assay: Annexin V-FITC/PI cell death quantification in SKOV3; type: cell-based, human; conditions: SKOV3, 72 h; 38 600 nM, 42 50 nM, 45 400 nM, paclitaxel 10 nM
Description: (§4) To determine whether the cytotoxic/antiproliferative effect of the MDS was due to apoptosis induction, cells were treated with variable concentrations of the drug for 72 h or 6 days, stained with Annexin V-FITC (AnV) and propidium iodide (PI), and analyzed by flow cytometry. Double negative cells (AnV^−/PI^−) were classified as live cells (L), cells positive for AnV and negative for PI (AnV^+/PI^−) were considered in Early Apoptosis (EA), cells negative for AnV and positive for PI (AnV^−/PI^+) were considered necrotic (N), and double-positive cells (AnV^+/PI^+) as Late Apoptosis (LA). In all cases, the compounds were used at the same concentrations previously used in cell cycle studies (Table 5).
(§5) MCF7, SKOV-3, and HeLa apoptotic cells were quantified using an Annexin V-FITC/PI apoptosis detection kit (Immunostep, Salamanca, Spain) according to the manufacturer’s guidelines. 1.5 mL/well of cells in the exponential growth phase at 2·10^4 cells/mL were seeded onto 12-well plates and left to attach overnight. After 24 h incubation, cells were treated with selected compounds. After 72 h (MCF7, SKOV-3, and HeLa) and 6 days (MCF7) post-treatment, attached and floating cells of treated and untreated wells were collected, centrifuged, resuspended in Annexin V binding buffer, and stained with Annexin V-FITC/PI. Cells were then incubated in darkness at room temperature for 15 min and a total of 30,000 cells were acquired and analyzed using the BD Accuri™ C6 Plus Flow Cytometer and Software (version 1.0.264.21, BD Biosciences, San José, CA, USA), respectively. Compounds were dissolved in DMSO and the final solvent concentration never exceeded 0.5% (v/v). Control wells included cells with 0.5% (v/v) DMSO.

[2] = test system: SKOV3 ovarian carcinoma cells; assay: Antiproliferative activity against SKOV3 (MTT); type: cell-based; conditions: Homo sapiens, SK-OV-3, 72 h
Description: as §1
MCF7 (human breast carcinoma), SKOV-3 (human ovarian carcinoma), OVCAR-3 (human ovarian carcinoma), OVCAR-8 (human ovarian carcinoma), and HeLa (human cervical carcinoma) cell lines were cultured in Dulbecco’s Modified Eagle’s Medium (DMEM) (Gibco, Thermo Fischer Scientific) containing 10% (v/v) heat-inactivated fetal bovine serum (HIFBS) (Lonza-Cambrex, Karlskoga, Sweden), 2 mM L-glutamine (Lonza-Cambrex, Karlskoga, Sweden), 100 μg/mL streptomycin, and 100 IU/mL penicillin (Lonza-Cambrex) at 37 °C in humidified 95% air and 5% CO2. HT-29 (human colon carcinoma), IGROV-1 (human ovarian carcinoma), and A2780 (human ovarian carcinoma) cell lines were cultured in RPMI 1640 medium (Gibco, Thermo Fischer Scientific) supplemented with 10% HIFBS, 100 μg/mL streptomycin, and 100 IU/mL penicillin at 37 °C in humidified 95% air and 5% CO2 atmosphere. The presence of mycoplasma was routinely checked with MycoAlert kit (Lonza-Cambrex) and only mycoplasma-free cells were used in the experiments. Ovarian tumor cell lines were originally acquired from Dr Atanasio Pandiella from Centro de Investigación del Cáncer (CIC), Salamanca, Spain. HeLa, HT-29 and MCF7 tumor cell lines were provided by Dr Faustino Mollinedo from Centro de Investigaciones Biológicas Margarita Salas, Madrid, Spain.
as §3

HeLa cells = assay: Annexin V-FITC/PI cell death quantification in HeLa; type: cell-based, human; conditions: 38 600 nM, 42 50 nM, 45 400 nM
Description: as §4, §5

[3] = test system: A2780 ovarian carcinoma cells; assay: Antiproliferative activity against A2780 (MTT); type: cell-based; conditions: Homo sapiens, 72 h
Description: as §1, §2, §3

| IC50 [1] [nM] | IC50 [2] [nM] | IC50 [3] [nM] | Compound | Annexin V-FITC/PI 72 h EA (early apoptosis) (SKOV3 cells) | Annexin V-FITC/PI 72 h LA (late apoptosis) (SKOV3 cells) [%] | Annexin V-FITC/PI 72 h Live (SKOV3 cells) [%] | Annexin V-FITC/PI 72 h Necrosis (SKOV3 cells) [%] | Annexin V-FITC/PI 72 h EA (early apoptosis) (HeLa cells) [%] | Annexin V-FITC/PI 72 h LA (late apoptosis, double-positives) (HeLa cells) [%] | Annexin V-FITC/PI 72 h Necrosis (HeLa cells) [%] |
| --- | --- | --- | --- | --- | --- | --- | --- | --- | --- | --- |
| 37 | 7 | 42 | COc1ccc(S(=O)(=O)N(C)c2cc(OC)c(OC)c(OC)c2)cc1N [Compound 42] | 12.2% | 2.0 | 85.1 | 0.7 | 1.4 | 82.0 | 9.4 |
| 74 | 46 | 68 | CNc1ccc(S(=O)(=O)N(C)c2cc(OC)c(OC)c(OC)c2)cc1 [Compound 38] | 31% and 30.5% | 5.4 | 62.3 | 1.8 | 1.1 | 87.6 | 10.6 |
| 48 | 48 | 104 | COc1ccc(S(=O)(=O)N(Cc2ccccc2)c2cc(OC)c(OC)c(OC)c2)cc1N [Compound 45] | 23% and 23.4% | 2.6 | 72.7 | 1.3 | 1.5 | 84.9 | 12.7 |
